Like-named read-outs stand apart in the source and are kept apart here.
Tests used:
[1] = system: medulloblastoma cells derived from sensitive Ptch+/−Hic+/− medulloblastoma tumors; experiment: ex-vivo medulloblastoma proliferation assay (48 h, 3H thymidine incorporation), sensitive tumors; type: cell-based; conditions: Mus musculus, Medulloblastoma cell
Description: (§1) The effect of mTor inhibitors (e.g., compounds such as Compound A) on the proliferation of medulloblastoma cells derived from sensitive and resistant medulloblastoma tumors was evaluated by using an “ex-vivo medulloblastoma proliferation assay. Sensitive tumors means tumors (e.g., medulloblastomas) which, due to hedgehog pathway activation, respond to treatment with a smoothened inhibitor anti-cancer regimen. Resistant tumors means formerly sensitive tumors (e.g., medulloblastomas) which, in the continuos presence of a smo inhibitor, either have regrown after shrinking due to treatment, or have reappeared after being temporarily eliminated due to treatment. Resistant tumors show a decreased sensitivity or no response to smoothened inhibition.
(§2) Using Ptch+/−Hic+/− medulloblastoma tumors freshly harvested from allografted nude mice, we have developed a short-term 48 h proliferation assay that enables us to assess the in vitro potency of Smo inhibitors. The read-out for proliferation uses incorporation of 3H thymidine. The assay reflects the in vivo sensitivity of tumor cells to Compound 1.
(§3) Table 1 summarizes the results of treating medulloblastoma cells in culture with Compound 1 (Smo inhibitor) and Compound A (mTor inhibitor), or combinations thereof. […] The potency of compound A in resistant tumors was increased in the presence of 5 and 20 uM of compound 1.

[2] = system: Ptch+/−Hic+/− medulloblastoma allograft; experiment: Ptch+/−Hic+/− subcutaneous medulloblastoma allograft model; type: in vivo, Harlan nu/nu mice; conditions: po; for effect on tumor growth / tumor volume: 80 mg/kg qd Compound 1, 10 mg/kg qd Compound A, or combination, FIG. 1
Description: Mouse medulloblastoma cells (1.0-5.0×10^6), dissociated directly from tumor fragments originally derived from spontaneously arising medulloblastomas in Ptch+/−Hic+/− mice, were inoculated subcutaneously into the right flank of Harlan nu/nu mice. Treatment was initiated approximately 7-10 days post implantation. […] Tumor volumes (mm3) and body weights (g) were recorded two or three times per week from all groups for analysis. Dose was body weight adjusted at time of dosing. Comparisons between treatment groups was performed using a non-parametric Kruskal-Wallis/Wilcoxon Rank Sum Test.
Tumors were calipered in two dimensions, and the volumes were calculated using the formula: (length×width2)/2, where length is the longer of the two measurements and width is the shorter one. Percent treatment/control (% T/C) values were calculated using the following formula: % T/C=100×ΔTf-i/ΔCf-i if ΔTf-i>0, % T/T0-100×ΔTf-i/T0 if ΔTf-i<0 (regression). A partial responder (PR) was defined as an animal whose tumor […] was less than 50% of the initial tumor volume by the end of the study. An animal with no palpable tumor by the end of study is defined as a complete responder (CR).
Ptch+/− mice develop medulloblastoma spontaneously (Romer, et al., Cancer Cell, Volume 6, Issue 3, pages 229-24, 2004). […] The heterozygous loss of Hic results in an earlier onset and increases the incidence rate of medulloblastomas (Briggs et al., Genes & Dev., 22: pages 770-785 2008). The in vivo efficacy of Compound 1 was evaluated in Ptch+/−Hic+/− mouse medulloblastoma allograft models, derived from corresponding transgenic mice and passaged in vivo, and following long-term continuous dosing. The following experiments were performed to evaluate if mTor inhibitors could be used either alone or in combination to treat resistant tumors or to overcome the development of resistance to Smo antagonists.
Next, a combination of Compound 1 and Compound A was explored in the Ptch+/−Hic+/− medulloblastoma allograft model.

[3] = system: medulloblastoma cells derived from resistant Ptch+/−Hic+/− medulloblastoma tumors; experiment: ex-vivo medulloblastoma proliferation assay (48 h, 3H thymidine incorporation), resistant tumors; type: cell-based, mouse; conditions: for IC50: Mus musculus, Medulloblastoma cell
Description: as §1, §2, §3

[4] = Tumor type Sensitive, single agent, 48 h, 3H thymidine, read-out: IC50, proliferation of medulloblastoma cells
[5] = Tumor type Resistant, single agent, 48 h, 3H thymidine, read-out: IC50, proliferation of medulloblastoma cells

Row | IC50 [1, 4] | IC50 ([1]; sensitive cells, read-out: IC50, inhibition of sensitive cells) | IC50 [3, 5] | IC50 ([3]; resistant tumors, read-out: IC50 in resistant tumors) | Compound | effect on tumor growth / tumor volume [2] | time to endpoint (tumor volume>700 mm3), in words ([2]; 80 mg/kg qd Compound 1, or combination with 10 mg/kg qd Compound A, FIG. 2) | time to endpoint (tumor volume>700 mm3) ([2]; 10 mg/kg qd Compound A, FIG. 2) | potency of compound A in resistant tumors ([3]; in the presence of 5 and 20 uM of compound 1) | inhibition of both sensitive and resistant tumors (comparison of IC50s) ([3]; resistant compared with sensitive tumors)
1 | 8 nM | 8 nM | 9080 nM | 9000 nM | Cc1c(C(=O)Nc2ccc(N3C[C@@H](C)O[C@@H](C)C3)nc2)cccc1-c1ccc(OC(F)(F)F)cc1 [Compound 1, 2-Methyl-4′-trifluoromethoxy-biphenyl-3-carboxylic acid [6-(cis-2,6-dimethyl-morpholin-4-yl)-pyridin-3-yl]-amide] | initially induced regression but tumors started to regrow | significantly prolonged | – | – | –
2 | 9 nM | – | 2 nM | – | CO[C@H]1C[C@@H]2CC[C@@H](C)[C@@](O)(O2)C(=O)C(=O)N2CCCC[C@H]2C(=O)O[C@H]([C@H](C)C[C@@H]2CC[C@@H](OCCO)[C@H](OC)C2)CC(=O)[C@H](C)/C=C(\C)[C@@H](O)[C@@H](OC)C(=O)[C@H](C)C[C@H](C)/C=C/C=C/C=C/1C [Compound A, (1R,9S,12S,15R,16E,18R,19R,21R,23S,24E,26E,28E,30S,32S,35R)-1,18-dihydroxy-12-{(1R)-2-[(1S,3R,4R)-4-(2-hydroxyethoxy)-3-methoxycyclohexyl]-1-methylethyl}-19,30-dimethoxy-15,17,21,23,29,35-hexamethyl-11,36-dioxa-4-aza-tricyclol-[30.3.1.04.9]hexatriaconta-16,24,26,28-tetraene-2,3,10,14,20-pentaone] | only a moderate effect on tumor growth compared to vehicle control | – | ~20 days | increased | inhibited both sensitive and resistant tumors with similar IC50s
